For one assay, the system named is MYCN G4 DNA with 10×tRNA. The assay is described as follows: Fluorescence titration of MYCN G4 in presence/absence of excess tRNA. The assay is classed as binding, human. Conditions: presence/absence of 10×tRNA. The protocol: (§1) 2-Aminopurine (2-AP) fluorescence titration. Fluorescence titrations based on 2-aminopurine labeling were performed using the protocol reported previously. Briefly, MYCN G4 oligonucleotide with a 2-AP substitution at either A11 or A18 position was annealed by heating the sample to 95° C. for 5 min and cooling down to RT slowly. The oligonucleotide with folded structure was diluted to 10 μM in Tris buffer (10 mM Tris, pH7.0, 100 mM KCl, 0.005% Tween 20) and prepared in a black 96-well plate (Costar) in triplicate as designed. Small molecules were diluted in DMSO to obtain a series of solutions with concentrations ranging from 0.1 to 5 mM, and then diluted by 20 times added into the plate (5% DMSO final concentration). The final concentration of 2-AP DNA was 1 μM in the well plate. To obtain the background fluorescence, small molecule solutions without DNA were also prepared in the same plate. After incubation for 30 min at RT, the plate was briefly centrifuged and scanned in Synergy Mx microplate reader (BioTek) with Ex 310 nm/Em 365 nm. Fluorescence signals were calculated by averaging the intensities in triplicate wells after subtracting the references. Finally, the binding signals were normalized and the KD value was determined by fitting the curve using a nonlinear sigmoidal dose-response model with a variable slope in GraphPad Prism 8.3.1 software.

The next assay concerns dsDNA. The assay is described as follows: CD melting test of dsDNA. The assay is classed as binding. The note with it: CD melting of dsDNA with compound.
A further assay addresses MYCN G4 DNA. Briefly: Fluorescence intensity assay (FIA) with 5′Cy5-labeled MYCN G4 DNA. In kind it is binding, human. The note with it: for Kd: 5′Cy5-labeled MYCN G4 titrated with compound; for positive binding in FIA (>10% quenching): single concentration 100 μM compound, 5′Cy5-MYCN G4. The protocol: (§2) Fluorescence intensity assay. In this disclosure, fluorescence intensity assay (FIA) was used for both validation of hit binding at a single dose and binding affinity determination. For validating hit compounds from SMM screening, 100 μM solution of each compound was prepared in triplicate in a 96 well-plate (Costar, black side clear bottom), resulting in 5% DMSO concentration. 5′Cy5-labeled MYCN G4 DNA was annealed as described above, then added into the well plate resulting in a final concentration of 100 nM. The plate was incubated shaking for 30 min, followed by centrifuging at 500 rpm for 2 minutes. The fluorescence intensity was then measured on a Synergy Mx microplate reader (BioTek) at Ex 649 nm/Em 670 nm. TMPyP4/DMSO were used as positive and negative controls, respectively. In certain examples, compounds were considered binders when a change of >10% change in fluorescence intensity was observed compared to that of negative control (DMSO solution). For binding affinity measurement, small molecule solutions were prepared as serial dilutions in DMSO. Then a final test plate was prepared by adding 5 μL small molecule solutions and 10 μL annealed DNA samples into 85 μL buffer solutions, resulting in the final small molecule concentrations from 0 to 250 μM (5% final DMSO concentration). The fluorescence intensities were normalized, and the binding affinity was calculated by fitting the curve using one-site total model in GraphPad Prism 8.3.1 software. The fluorescence titration using 3′-labeled oligonucleotides was also performed the same way.

For assay [1], the target named is mutated/truncated MYCN G4 DNA. Briefly: FIA titration with mutated long loop and truncated (no hairpin) MYCN G4 DNAs. The assay is classed as binding, human. On the procedure: as §2
To further understand the binding details between compound MY-1 and MYCN G4, a series of FIA studies were designed and performed. […] After incubating 100 μM MY-1 with labeled DNA samples, fluorescence intensities were measured and compared to DMSO controls. Fluorescence of the A11 2-AP DNA sample was quenched by almost 100%, while the quenching percentages were 80% and 70% for A18 and A24 2-AP DNAs, respectively (FIG. 24B, FIGS. 25A-25C). […]

Assay [2] deals with MYCN G4 DNA (2-AP at A11). The assay is described as follows: 2-Aminopurine (2-AP) fluorescence titration, A11-labeled MYCN G4. The assay is classed as binding, human. The note with it: 2-AP at A11 of MYCN G4. On the procedure:
as §1

The text below walks through data of patent publication US20240287054A1, “COMPOUNDS THAT BIND NON-CANONICAL G-QUADRUPLEX STRUCTURES AND METHODS OF MAKING AND USING THE SAME” (The U.S.A., as Represented by the Secretary, Department of …, priority 2021, published 2024).

The structures appear in SMILES notation.

Take `CCCN1CCN(c2nnc(-n3cccc3CNCCCN3CCCCCC3)s2)CC1` [Compound 1]: the “effect of excess tRNA on binding affinity” value with MYCN G4 DNA with 10×tRNA is “no effect”. Also, the “effect on dsDNA melting” value with dsDNA was “Neither of the compounds showed a measurable effect”. On MYCN G4 DNA, the Kd came out at 20.8 ± 2.2 µM and the “positive binding in FIA (>10% quenching)” value is on record as “hits”. Moreover, in assay [1] (5′-Cy5 labeled constructs without hairpin), the “binding affinity to mutated long loop and truncated MYCN G4 DNAs” value is listed as “comparable to wild type”.

Regarding `COc1ccc(-c2noc(-c3ccc(NCCCN4CCCCCC4)nn3)n2)cc1` [MY-8, N-(3-(azepan-1-yl)propyl)-6-(3-(4-methoxyphenyl)-1,2,4-oxadiazol-5-yl)pyridazin-3-amine], in assay [2], the “A11 2AP KD” value is on record as “sub-micromolar binders” and the Kd came to 0.6 ± 0.2 µM.

For the molecule `COc1ccc(-c2noc(-c3ccc(NCCCN4CCCC4)nn3)n2)cc1` [MY-1, 6-(3-(4-methoxyphenyl)-1,2,4-oxadiazol-5-yl)-N-(3-(pyrrolidin-1-yl)propyl)pyridazin-3-amine], the “effect of excess tRNA on binding affinity” value with MYCN G4 DNA with 10×tRNA is “no effect”. Further, the “effect on dsDNA melting” value with dsDNA is listed as “Neither of the compounds showed a measurable effect”. Further, the Kd was 3.2 ± 0.6 µM in assay [2]; 3.5 ± 1.6 µM at MYCN G4 DNA; more than 100 µM in assay [1] (5′-Cy5 labeled constructs without hairpin, read-out: binding affinity to mutated long loop and truncated MYCN G4 DNAs). In the assay with MYCN G4 DNA, the “positive binding in FIA (>10% quenching)” value is reported as “hits”. Further, the “fold weaker binding than wild type MYCN G4” value in assay [1] (mutated/truncated vs wild type) is listed as approximately 30 fold.
